Data reported in US20200179245A1, “HIGH EFFICIENCY SUNSCREEN COMPOSITION” (Deckner Consulting Services, LLC, priority 2015, published 2020).
Read-outs that look alike come from different tables or passages of the source.

Key:
[1] = human skin, cited from earlier work
[2] = In vitro open chamber Franz diffusion cell penetration test; format: in vitro ADME; details: Strat-M membrane, 37° C.
Procedure: The Test sample was Barsoleil OMC-60 with a purity of 61.95%. The control sample was Octyl Methoxycinnamate with a purity of 100%. The samples were applied to a Strat-M membrane for testing using 5 skin preparations. A 6-cell semiautomatic Franz cell setup was used for all diffusion experiments. (Franz cell Diffusion is a standard in vitro method used for penetration). Circulating water baths were set to 37° C.±0.5° C. Strat-M synthetic membrane was used in place of cadaver skin. The Strat-M® membrane was placed between the donor and receptor compartments of the Franz cells. The available open area between donor and receptor compartments measured 0.635 cm2. The compartments were clamped together, ensuring that the shiny side of the membrane was facing the donor compartment. 1 mL of the test and control samples were used and placed in the donor chamber. The receptor compartment was filled with 0.9% saline:methanol (50:50) buffer. When the receptor solution reached 37° C., the sample was added to the donor compartment. An aliquot of each sample was removed from the receptor compartment at times T=0, 2, 4, 6 and 8 hours.
The dose of the receptor phase was analyzed by HPLC, and the amount of release per unit area (μg/cm2) was plotted against the square of time and the slope was the transdermal release rate. (See FIG. 3, control sample 20, test sample 30).

Row | Compound | in vitro skin penetration rate / skin accumulation ([1]; oil in water emulsion) | in vitro skin penetration rate / skin accumulation ([1]; water in oil emulsion) | Cumulative C ([2]; penetration time 0 hrs) | Cumulative C ([2]; penetration time 2 hrs) | Cumulative C ([2]; penetration time 4 hrs) | Cumulative C ([2]; penetration time 6 hrs) | Cumulative C ([2]; penetration time 8 hrs)
1 | CCCCC(CC)COC(=O)/C=C/c1ccc(OC)cc1 (stereo not shown) [OMC-free] | 127.8 μg/cm^2 | 172.1±12.9 μg/cm^2 | – | – | – | – | –
2 | CCCCC(CC)COC(=O)C=Cc1ccc(OC)cc1 (stereo not shown) [OMC, Octyl Methoxycinnamate] | – | – | 0 μg/cm^2 | 16.7 μg/cm^2 | 55.2 μg/cm^2 | 96.5 μg/cm^2 | 144.9 μg/cm^2
